System: MCF7
Assay: Cytotoxicity against Homo sapiens (human) MCF7 cells after 48 hr by neutral red assay
Type: functional, cell-based

SMILES | IC50 [µM]
CC1=NC2C(=C3CCCN3C2(O)N2CCOCC2)C(=O)N1 (stereo not drawn) | 36
O=C1NC(c2ccccc2)=NC2C1=C1CCCN1C2(O)N1CCOCC1 (stereo not drawn) | 16
CC(=O)CC(=O)NC1C(C#N)=C2CCCN2C1(O)N1CCOCC1 (stereo not drawn) | 22
CC(=O)C1=C(N)C2=C3CCCN3C(O)(N3CCOCC3)C2NC1=O (stereo not drawn) | 29
O=C1NC=NC2C1=C1CCCN1C2(O)N1CCOCC1 (stereo not drawn) | 30
CCOC=NC1C(C#N)=C2CCCN2C1(O)N1CCOCC1 (stereo not drawn) | 41
N#CC1=C2CCCN2C(O)(N2CCOCC2)C1/N=C/NNC(=O)c1ccncc1 (stereo not drawn) | 29
N#CC1=C2CCCN2C(O)(N2CCOCC2)C1/N=C/NNC(=O)c1ccccc1 (stereo not drawn) | 18
O=C1NC(NNC(=O)c2ccncc2)=NC2C1=C1CCCN1C2(O)N1CCOCC1 (stereo not drawn) | 20
O=C1NC(NNC(=O)c2ccccc2)=NC2C1=C1CCCN1C2(O)N1CCOCC1 (stereo not drawn) | 19
NC1=NC=NC2C1=C1CCCN1C2(O)N1CCOCC1 (stereo not drawn) | 35
CC(=O)NC1=NC=NC2C1=C1CCCN1C2(O)N1CCOCC1 (stereo not drawn) | 29
O=C(NC1=NC=NC2C1=C1CCCN1C2(O)N1CCOCC1)c1ccccc1 (stereo not drawn) | 21
O=C(CCl)NC1=NC=NC2C1=C1CCCN1C2(O)N1CCOCC1 (stereo not drawn) | 23
CCOC(=O)NC1=NC=NC2C1=C1CCCN1C2(O)N1CCOCC1 (stereo not drawn) | 25
N#CC1=C2CCCN2C(O)(N2CCOCC2)C1/N=C/N (stereo not drawn) | 26
CC(=O)C/C(C)=N/C1C(C#N)=C2CCCN2C1(O)N1CCOCC1 (stereo not drawn) | 42
C/C(CC(=O)c1ccccc1)=N\C1C(C#N)=C2CCCN2C1(O)N1CCOCC1 (stereo not drawn) | 28
CC(=O)C1=C(N)C2=C3CCCN3C(O)(N3CCOCC3)C2N=C1C (stereo not drawn) | 38

SMILES | IC50 [µM]
N=C1C2=C3CCCN3C(O)(N3CCOCC3)C2NC(=O)N1c1ccccc1 (stereo not drawn) | 18
N=C1C2=C3CCCN3C(O)(N3CCOCC3)C2NC(=O)N1c1ccc(Cl)cc1 (stereo not drawn) | 37
CC(=O)NC1C(C#N)=C2CCCN2C1(O)N1CCOCC1 (stereo not drawn) | 29
N#CC1=C2CCCN2C(O)(N2CCOCC2)C1NC(=O)c1ccccc1 (stereo not drawn) | 34
N#CC1=C2CCCN2C(O)(N2CCOCC2)C1NC(=O)CCl (stereo not drawn) | 23
CCOC(=O)NC1C(C#N)=C2CCCN2C1(O)N1CCOCC1 (stereo not drawn) | 27
N#CC1=C2CCCN2C(O)(N2CCOCC2)C1N (stereo not drawn) | 35
N#CC1=C2CCCN2C(O)(N2CCOCC2)C1/N=C/c1ccc(Cl)cc1 (stereo not drawn) | 45
N#CC1=C2CCCN2C(O)(N2CCOCC2)C1/N=C/c1ccc([N+](=O)[O-])cc1 (stereo not drawn) | 19
COc1ccc(/C=N/C2C(C#N)=C3CCCN3C2(O)N2CCOCC2)cc1 (stereo not drawn) | 16
CN(C)c1ccc(/C=N/C2C(C#N)=C3CCCN3C2(O)N2CCOCC2)cc1 (stereo not drawn) | 37
N#CC1=C2CCCN2C(O)(N2CCOCC2)C1N1C(=O)CSC1c1ccc(Cl)cc1 (stereo not drawn) | 18
N#CC1=C2CCCN2C(O)(N2CCOCC2)C1N1C(=O)CSC1c1ccc([N+](=O)[O-])cc1 (stereo not drawn) | 55
COc1ccc(C2SCC(=O)N2C2C(C#N)=C3CCCN3C2(O)N2CCOCC2)cc1 (stereo not drawn) | 35
CN(C)c1ccc(C2SCC(=O)N2C2C(C#N)=C3CCCN3C2(O)N2CCOCC2)cc1 (stereo not drawn) | 19
CCNC(=S)NC1C(C#N)=C2CCCN2C1(O)N1CCOCC1 (stereo not drawn) | 37
N#CC1=C2CCCN2C(O)(N2CCOCC2)C1NC(=O)Nc1ccccc1 (stereo not drawn) | 44
CCN1C(=N)C2=C3CCCN3C(O)(N3CCOCC3)C2NC1=S (stereo not drawn) | 34
COc1cccc2c1C(=O)c1c(O)c3c(c(O)c1C2=O)C[C@@](O)(C(=O)CO)C[C@@H]3O[C@H]1C[C@H](N)[C@H](O)[C@H](C)O1 [DOXORUBICIN] | 63
